According to US20240226069A1, “VAFIDEMSTAT FOR USE IN TREATING AUTISM SPECTRUM DISORDERS” (ORYZON GENOMICS, S.A., priority 2019, published 2024):

Tested on: ASD patients
Test: Phase IIa clinical trial (REIMAGINE), ASD cohort treated with vafidemstat for 8 weeks
Format: in vivo, human
Settings: 1.2 mg/day oral
Description: As part of a Phase II a clinical trial (REIMAGINE trial, EudraCT number 2018-002140-88) to evaluate the safety, tolerability and efficacy of vafidemstat to treat aggression in adult population in patients with different CNS disorders, a cohort of ASD patients was recruited and treated with vafidemstat for 8 weeks. A summary of the protocol of this clinical trial and results obtained in the ASD cohort are provided below.
Reimagine is a unicenter, open-label, 1-arm, 8-week clinical study to evaluate the efficacy, safety and tolerability of vafidemstat in aggression in adult population with ASD, ADHD and BPD.
Main objective of the trial: To evaluate the safety and tolerability of vafidemstat in adult population with ASD ADHD and BPD.
Secondary objectives of the trial: To investigate the efficacy of vafidemstat in aggression in adult population with ASD ADHD and BPD.
Main inclusion criteria: • age 18-85 • current diagnosis for ASD, ADHD or BPD according to DSM-5 criteria • significant or persistent agitation or aggression that was disruptive to patient's daily living or put the patient in harm's way for at least 3 days per week for at least 4 weeks prior to screening visit
Treatment: All patients received vafidemstat (as free base) at a dose of 1.2 mg/day, administered orally as a single capsule, in a 5 days on/2 days off schedule, during 8 weeks.
Six ASD patients were recruited, but there was one drop-out, and therefore the results as described herein correspond to the 5 ASD subjects eligible for analysis. A summary of the patients recruited in this ASD cohort (demographic data at baseline) can be found in Table 1.
Evaluation of the effect of treatment with vafidemstat on aggression was performed using the NPI A/A as well as the CGI-I and CGI-S scales. The NPI A/A subscale is based on the NPI and consists of the 4 items in the NPI related to aggression/agitation, namely: agitation/aggression, disinhibition, irritability and aberrant motor disturbance. The severity of each of the 4 items in the NPI A/A scale is rated from 1 to 3 (1=mild, 2=moderate, 3=severe) and the NPI A/A score is calculated as the sum of the scores for all 4 items. CGI values reflect clinician's ratings of patient's aggression severity (CGI-S scale) and improvement in aggression from the initiation (baseline) of the treatment (CGI-I scale). In the CGI-I scale, change from initiation of treatment is rated using a seven-point scale, where 1=very much improved since initiation of treatment, 7=very much worse since initiation of treatment, and 4=no change from baseline. In the CGI-S scale, illness/condition severity is rated using a seven-point scale, the higher the score, the more severe the illness/condition, with 1=normal, not at all ill and 7=among the most extremely ill patients.
In addition to assessing its effect on aggression, the effect of treatment with vafidemstat on ASD patients was also evaluated using the total NPI scale and the NPI non-aggression related combined score. The total NPI scale consists of 12 items relating to a variety of neuropsychiatric domains (namely: delusions, hallucinations, agitation/aggression, depression, anxiety, euphoria/elation, apathy/indifference, disinhibition, irritability, aberrant motor disturbance, nighttime behavior, and appetite/eating disorders) and was used to measure global functioning in ASD patients. The severity of each item in the NPI is rated from 1 to 3 (1=mild, 2=moderate, 3=severe) and the total NPI score is calculated as the sum of the scores for all 12 items. The NPI non-aggression related combined score is the NPI combined score for all other items in the NPI not related to aggression or agitation (8 items; namely: delusions, hallucinations, depression, anxiety, euphoria/elation, apathy/indifference, nighttime behavior, and appetite/eating disorders). […]

[1] = adult ASD patients, 5 days on/2 days off, 8 weeks

Nc1nnc(CN[C@@H]2C[C@H]2c2ccc(OCc3ccccc3)cc2)o1 [Vafidemstat, 5-((((1R,2S)-2-(4-(benzyloxy)phenyl)cyclopropyl)amino)methyl)-1,3,4-oxadiazol-2-amine]
total NPI score (12 items), visit 1 to visit 7 (5 ASD patients, baseline vs 2 months of treatment, p=0.0019 (FIG. 4)): statistically significant reduction
NPI non-aggression related combined score (8 items), visit 1 to visit 7 (5 ASD patients, baseline vs 2 months of treatment, p=0.0142 (FIG. 5)): statistically significant reduction
CGI-S value, visit 1 to visit 7 (5 ASD patients, baseline vs 8 weeks treatment, no paired test could be calculated (FIG. 3)): reduction
CGI-I value, visit 1 to visit 7 (5 ASD patients, baseline vs 8 weeks treatment, p=0.0019 (FIG. 2)): statistically significant reductions
NPI A/A (4-item agitation/aggression subscale) value, visit 1 to visit 7 (5 ASD patients, baseline vs 8 weeks treatment, p=0.0098 (FIG. 1)): statistically significant reductions
safety and tolerability [1]: safe and well tolerated, without significant adverse events
sedation [1]: No sedation
CGI-S score, visit 1 to visit 7, cohort with one additional patient (n=6 ASD patients, baseline vs 8 weeks treatment, p=0.0006 (FIG. 6)): statistically significant reduction
